This note sets out measurements from PMC7041945, “Misfolded proteins bind and activate death receptor 5 to trigger apoptosis during unresolved endoplasmic reticulum stress” (eLife, 2020).

The subject of the assay is HCT116 cells. The assay can be described thus: Annexin V (and SytoxBlue) flow cytometry for apoptosis. Format: cell-based, Homo sapiens. Particulars: for Annexin V +, Sytox Blue + cells / Annexin V +, Sytox Blue - cells / Annexin V -, Sytox Blue - cells: transfected 24 hr. How it is done: Cells seeded in a 6-well plate were transfected with the specified plasmid for 24 hr and harvested via trypsinization in complete media to allow a 30 min recovery at 37°C. The samples were then centrifuged at 500xg for 5 min and resuspended In 150 μl of a 1:20 dilution of Annexin V-AlexaFluor 647 conjugate (Thermo Scientific #A23204). Samples were transferred to a 96-well U-bottom plate and incubated in the dark for 15 min at RT. The distribution of apoptotic cells was determined by flow cytometry on a BD LSR II.
A general note: A flow cytometer gives signals particle by particle.

In the case of “FTWRYQPEGGRDAISIFHYA [MPZ-ecto peptide-eGFP, expressed construct: MPZ ectodomain replaced by the MPZ-ecto peptide, GFP-tagged]”, the “annexin V staining” value (HCT116, 24 hr, relative to empty vector or WT) is given as “increased annexin V staining relative to the empty vector”. Besides, the “Annexin V +, Sytox Blue + cells” value reads like this: (+ z-VAD) 8.37% of cells; (no z-VAD) 19.1% of cells. Besides, the “Annexin V +, Sytox Blue - cells” value (+ z-VAD (20 μm [sic])) is recorded as 3.77% of cells and the “Annexin V +, Sytox Blue - cells” value (no z-VAD) was 11.5% of cells. The “Annexin V -, Sytox Blue - cells” value (+ z-VAD (20 μm [sic])) is recorded as 86.3% of cells and the “Annexin V -, Sytox Blue - cells” value (no z-VAD) was 65.3% of cells.
